Experimental findings from paper PMC8011784, “Chronic peptide-based GIP receptor inhibition exhibits modest glucose metabolic changes in mice when administered either alone or combined with GLP-1 agonism” (PLoS ONE, 2021) are described below.

The assay deals with DIO mice. Nature of the assay: Chronic GIPA-1 study: body weight and food intake in DIO mice. The class given is in vivo, mouse. Particulars: 28 days, HFD; liraglutide 0.2 mg/kg/day SC, GIPA-1 ~4.5 mg/kg/day osmotic minipump; n = 10; vs vehicle (combination: vs liraglutide). As to the method:
23-week-old male C57BL/6JRj mice (n = 40), fed a HFD (SSNIFF® diet #12492[60% fat, 20% protein, 20% carbohydrate]) for 14 weeks, were distributed into 4 test groups and received daily either vehicle, liraglutide (0.2 mg/kg/day), GIPA-1 (~4.5 mg/kg/day) or liraglutide + GIPA-1 for 4 weeks while still maintained on HFD. GIPA-1 was delivered using minipumps in order to achieve sufficient GIPR antagonism based on the properties of this peptide (Fig 2A). Liraglutide was dissolved in phosphate-buffered saline (PBS) plus 0.1% bovine serum albumin (BSA) (vehicle 1) and GIPA-1 in DMSO/propylene glycol (50/50 volume per volume) (vehicle 2). 100 μL minipumps (Alzet) were filled with GIPA-1 (30 mg/mL) or vehicle 2 and kept in 0.9% saline at 37°C overnight. […] Fasted (4 hrs) blood glucose and insulin levels were measured on study day -3, 14 and 27. […] Blood glucose was measured before their daily dosing and at 0, 15, 30 60, 120, 180 min after glucose administration. Plasma insulin was measured at 0 and 15 min. Whole body weight and food intake were measured throughout the study period. […]
Fig 2 Effects of chronic GIPR antagonism on body weight, food intake, and fasting blood glucose and insulin. […] Statistical analysis was calculated using two-way ANOVA with Tukey’s post-hoc test and one-way ANOVA for AUC with Dunnett’s post-hoc test. *: p< 0.05, **: p < 0.01, ***: p < 0.001, ****: p<0.0001 compared to vehicle.

Regarding liraglutide, the body weight result was “reduced both body weight and food intake”; the cumulative food intake entry was “reduced both body weight and food intake”.
